From patent US20080293820A1, “METHODS FOR IMPROVING PHYSICAL FUNCTION IN FIBROMYALGIA” (Cypress Bioscience, Inc., priority 2007, published 2008)
“And” between values parts separate entries of the source, which are not always exact repeats. Equal entries are not always repeated. Structures can show the parent of a compound that is named as a salt.

Test system: patients who met the 1990 ACR criteria for fibromyalgia syndrome
Assay: Example 1: multi-center double-blind, randomized, placebo-controlled study of milnacipran for the treatment of fibromyalgia (888 patients)
Assay type: in vivo, human
Set-up: Mean Change from Baseline in PFI SF-36 domain score / Mean Change from Baseline in PAIN SF-36 domain score / Mean Change from Baseline in GHP SF-36 domain score / Mean Change from Baseline in ROLP SF-36 domain score: scale not given here
Conditions: for responders for the treatment of the pain of fibromyalgia (pain composite), % = m/n: observed cases (OC), hydrochloride; for odds ratio of response / number of responders m (pain of fibromyalgia): OC; for Mean Change from Baseline in GHP SF-36 domain score / Mean Change from Baseline in PAIN SF-36 domain score / Mean Change from Baseline in PCS Score / Mean Change from Baseline in PFI SF-36 domain score / Mean Change from Baseline in ROLP SF-36 domain score: Observed Cohort
Experimental: The primary outcome was a composite responder analysis assessing response rate at weeks 14 and 15, and the secondary analysis assessed response rate at weeks 26 and 27.
This was a multi-center, randomized, double-blinded, placebo-controlled three-arm study, which enrolled 888 patients who met the 1990 ACR criteria for fibromyalgia syndrome as well as the more detailed admission criteria outlined in the protocol.
Patients were randomized to receive either placebo, 100 mg/day milnacipran, or 200 mg/day milnacipran in a ratio of a 1:1:2. All randomized medications (placebo and milnacipran) were administered in a split-dose (BID) fashion. The doses were administered in a dose escalation regimen as outlined below:
All patients were scheduled to receive a total of 24 weeks of milnacipran or placebo after the 3 weeks of dose escalation steps, for a total of 27 weeks of milnacipran or placebo exposure.
The primary endpoint of this study was a composite responder analysis implementing analysis of three domains of interest, evaluated at […]. The domains measured were:
1) pain (measured by an electronic diary as a daily recall pain score, calculated to weekly average scores)
2) patient global (measured by the PGIC, 1-7 scale)
3) physical function (measured by the SF-36 PCS).
For the primary analysis, the pain domain score was determined by a calculation that compared the average of treatment weeks 14 and 15 to the two baseline weeks, and treatment weeks 26 and 27 vs. baseline for the secondary analysis. The last observation was carried forward if neither the week 14 nor week 15 (or week 26/27) patient self-reported pain score is available to compare to the baseline value.
A responder was defined as a subject who experienced a greater than 30% reduction in pain from baseline and improvement on the PGIC.
At three months, the percentage of responders was: 35.44% (56/158) in the placebo group; 53.33% (72/135) (p=0.001) in the milnacipran 100 mg/day group; and 55.00% (143/260) (p<0.001) in the milnacipran 200 mg/day group. At six months, the percentage of responders was: 32.86% (46/140) in the placebo group; 49.59% (60/121) (p=0.002) in the milnacipran 100 mg/day group; and 51.74% (119/230) (p<0.001) in the milnacipran 200 mg/day group. See Table 1 for a summary of the results in the Intent-to-Treat Population and Table 2 for a summary of the Last Observation Carried Forward (LOCF), Baseline Observation Carried Forward (BOCF) and study completer (OC) populations. LOCF is an analysis in which observations are carried forward to the last time point for patients who dropped out. The LOCF analysis treats the carried-forward data as observed data at the last time point. BOCF is an analysis that requires the patient remain active in the trial to be evaluated for response. If a patient withdraws from the trial for any reason they are classed as a non-responder irregardless of their pain and global scores at the time of withdrawal.
The following domains were used to evaluate the PCS score: physical function (PFI), role physical (ROLP), bodily pain (PAIN), general health profile (GHP), […] (VIT), social role (SOC), role emotional (ROLE) and mental health index (MHI). The PFI, ROLP, PAIN and GHP domains are positively weighted in the PCS calculation, and the VIT, SOC, ROLE and MHI domains are negatively weighted in the PCS calculation (Normative Value=50, SD=10).

CCN(CC)C(=O)C1(c2ccccc2)CC1CN (racemic) [milnacipran, Z-2-aminomethyl-1-phenyl-N,N-diethylcyclopropanecarboxamide hydrochloride]
physical function in patients with fibromyalgia compared to placebo (in words) (100 mg or 200 mg): surprisingly and effectively improves physical function | responders for the treatment of the pain of fibromyalgia (pain composite), % = m/n (100 mg/day, treatment weeks 14-15 (3 months)): 53.33% and 53.3% | responders for the treatment of the pain of fibromyalgia (pain composite), % = m/n (100 mg/day, treatment weeks 14-15 (3 months), listed as Milnacipran): 53.33% | responders for the treatment of the pain of fibromyalgia (pain composite), % = m/n (100 mg/day, treatment weeks 26-27 (6 months)): 49.59% and 49.6% | responders for the treatment of the pain of fibromyalgia (pain composite), % = m/n (100 mg/day, treatment weeks 26-27 (6 months), listed as Milnacipran): 49.59% | odds ratio of response (100 mg/day, weeks 14-15): 2.10 | number of responders m (pain of fibromyalgia) (100 mg/day, weeks 14-15, n=135): 72 | odds ratio of response (100 mg/day, weeks 26-27): 1.96 | number of responders m (pain of fibromyalgia) (100 mg/day, weeks 26-27, n=121): 60 | Pain Composite responder rate, Sensitivity Analysis II (100 mg, 3 month): 32.% | Pain Composite responder rate, Sensitivity Analysis III (100 mg, 3 month): 32.1% | Pain Composite responder rate, Sensitivity Analysis I (BOCF) (100 mg, 3 month): 32.1% | Individual component responder rate: PGIC (LOCF) (100 mg, 3 month): 54.0% | Individual component responder rate: Pain (LOCF) (100 mg, 3 month): 35.7% | Pain Composite responder rate, Primary Analysis (LOCF) (100 mg, 3 month): 33.5% | Pain Composite responder rate, Sensitivity Analysis II (100 mg, 6 month): 27.2% | Pain Composite responder rate, Sensitivity Analysis III (100 mg, 6 month): 29.5% | Pain Composite responder rate, Sensitivity Analysis I (BOCF) (100 mg, 6 month): 26.8% | Individual component responder rate: PGIC (LOCF) (100 mg, 6 month): 49.6% | Individual component responder rate: Pain (LOCF) (100 mg, 6 month): 35.7% | Pain Composite responder rate, Primary Analysis (LOCF) (100 mg, 6 month): 30.8% | Mean Change from Baseline in GHP SF-36 domain score (100 mg, Tx 3): 5.9 | Mean Change from Baseline in PAIN SF-36 domain score (100 mg, Tx 3): 11.8 | Mean Change from Baseline in PCS Score (100 mg, Tx 3): 3.6 | Mean Change from Baseline in PFI SF-36 domain score (100 mg, Tx 3): 6.4 | Mean Change from Baseline in ROLP SF-36 domain score (100 mg, Tx 3): 12.3 | Mean Change from Baseline in GHP SF-36 domain score (100 mg, Tx 7): 6.3 | Mean Change from Baseline in PAIN SF-36 domain score (100 mg, Tx 7): 15.0 | Mean Change from Baseline in PCS Score (100 mg, Tx 7): 4.6 | Mean Change from Baseline in PFI SF-36 domain score (100 mg, Tx 7): 7.6 | Mean Change from Baseline in ROLP SF-36 domain score (100 mg, Tx 7): 16.4 | Mean Change from Baseline in GHP SF-36 domain score (100 mg, Tx 11): 8.1 | Mean Change from Baseline in PAIN SF-36 domain score (100 mg, Tx 11): 19.4 | Mean Change from Baseline in PCS Score (100 mg, Tx 11): 5.9 | Mean Change from Baseline in PFI SF-36 domain score (100 mg, Tx 11): 10.6 | Mean Change from Baseline in ROLP SF-36 domain score (100 mg, Tx 11): 18.6 | Mean Change from Baseline in GHP SF-36 domain score (100 mg, Tx 15): 7.8 | Mean Change from Baseline in PAIN SF-36 domain score (100 mg, Tx 15): 18.1 | Mean Change from Baseline in PCS Score (100 mg, Tx 15): 6.2 | Mean Change from Baseline in PFI SF-36 domain score (100 mg, Tx 15): 11.4 | Mean Change from Baseline in ROLP SF-36 domain score (100 mg, Tx 15): 19.3 | responders for the treatment of the pain of fibromyalgia (pain composite), % = m/n (200 mg/day, treatment weeks 14-15 (3 months)): 55.0% | responders for the treatment of the pain of fibromyalgia (pain composite), % = m/n (200 mg/day, treatment weeks 14-15 (3 months), listed as Milnacipran): 55.00% | responders for the treatment of the pain of fibromyalgia (pain composite), % = m/n (200 mg/day, treatment weeks 26-27 (6 months)): 51.74% and 51.7% | responders for the treatment of the pain of fibromyalgia (pain composite), % = m/n (200 mg/day, treatment weeks 26-27 (6 months), listed as Milnacipran): 51.74% | odds ratio of response (200 mg/day, weeks 14-15): 2.20 | number of responders m (pain of fibromyalgia) (200 mg/day, weeks 14-15, n=260): 143 | odds ratio of response (200 mg/day, weeks 26-27): 2.20 | number of responders m (pain of fibromyalgia) (200 mg/day, weeks 26-27, n=230): 119 | Pain Composite responder rate, Sensitivity Analysis II (200 mg, 3 month): 32.7% | Pain Composite responder rate, Sensitivity Analysis III (200 mg, 3 month): 32.4% | Pain Composite responder rate, Sensitivity Analysis I (BOCF) (200 mg, 3 month): 32.4% | Individual component responder rate: PGIC (LOCF) (200 mg, 3 month): 50.6% | Individual component responder rate: Pain (LOCF) (200 mg, 3 month): 38.3% | Pain Composite responder rate, Primary Analysis (LOCF) (200 mg, 3 month): 34.9% | Pain Composite responder rate, Sensitivity Analysis II (200 mg, 6 month): 28.6% | Pain Composite responder rate, Sensitivity Analysis III (200 mg, 6 month): 29.9% | Pain Composite responder rate, Sensitivity Analysis I (BOCF) (200 mg, 6 month): 27.0% | Individual component responder rate: PGIC (LOCF) (200 mg, 6 month): 49.9% | Individual component responder rate: Pain (LOCF) (200 mg, 6 month): 35.4% | Pain Composite responder rate, Primary Analysis (LOCF) (200 mg, 6 month): 32.2% | Mean Change from Baseline in GHP SF-36 domain score (200 mg, Tx 3): 6.0 | Mean Change from Baseline in PAIN SF-36 domain score (200 mg, Tx 3): 12.5 | Mean Change from Baseline in PCS Score (200 mg, Tx 3): 3.6 | Mean Change from Baseline in PFI SF-36 domain score (200 mg, Tx 3): 8.2 | Mean Change from Baseline in ROLP SF-36 domain score (200 mg, Tx 3): 13.0 | Mean Change from Baseline in GHP SF-36 domain score (200 mg, Tx 7): 8.5 | Mean Change from Baseline in PAIN SF-36 domain score (200 mg, Tx 7): 18.6 | Mean Change from Baseline in PCS Score (200 mg, Tx 7): 5.9 | Mean Change from Baseline in PFI SF-36 domain score (200 mg, Tx 7): 11.0 | Mean Change from Baseline in ROLP SF-36 domain score (200 mg, Tx 7): 19.0 | Mean Change from Baseline in GHP SF-36 domain score (200 mg, Tx 11): 7.7 | Mean Change from Baseline in PAIN SF-36 domain score (200 mg, Tx 11): 16.8 | Mean Change from Baseline in PCS Score (200 mg, Tx 11): 5.6 | Mean Change from Baseline in PFI SF-36 domain score (200 mg, Tx 11): 10.7 | Mean Change from Baseline in ROLP SF-36 domain score (200 mg, Tx 11): 18.4 | Mean Change from Baseline in GHP SF-36 domain score (200 mg, Tx 15): 8.2 | Mean Change from Baseline in PAIN SF-36 domain score (200 mg, Tx 15): 19.3 | Mean Change from Baseline in PCS Score (200 mg, Tx 15): 6.1 | Mean Change from Baseline in PFI SF-36 domain score (200 mg, Tx 15): 11.9 | Mean Change from Baseline in ROLP SF-36 domain score (200 mg, Tx 15): 19.9
